Experimental data: patent EP0513849B1, “Method of preparing transgenic Zea mays plants regenerated from protoplasts or protoplast-derived cells” (Novartis AG, priority 1987, dated 1988)

What was measured:
Zea mays protoplasts [1] = assay: Colony formation from Zea mays protoplasts with DMSO and O-acetyl-salicylic acid in the presence of 2,4-D (Example 20); type: cell-based; conditions: for number of formed colonies: no additions, 0.75 million protoplasts per ml, counted after 3 weeks
Protocol: (§1) The plates containing the protoplasts in agarose are placed in the dark at 26 °C. Within 14 days, cell colonies arise from the protoplasts. The agarose containing the colonies is transferred to the surface of a 9 cm diameter petri dish containing 30 ml of N6 medium with 2 mg/liter 2,4-D, solidified with 0.24% w/v Gelrite^R (2N6). The colonies are cultured to give callus. The callus is cultured further in the dark at 26 °C and callus pieces subcultured every 2 weeks onto fresh N6 medium containing 2 mg/liter 2,4-D (solidified with 0.24% w/v Gelrite^R).
Protoplasts are resuspended in the last step of example 3 in 6/7 strength KMC solution at 7.5 million per ml. The O-acetyl-salicylic acid is dissolved at 2.5 mg/ml in KM medium. The solution is filter sterilized. The O-acetyl-salicylic acid is then added to the culture medium immediately before use. Aliquots of protoplast suspension are placed in 6 cm diameter petri dishes at room temperature. 3 ml of KM medium containing 1.2% w/v SeaPlaque^R agarose, 2,4-D and O-acetyl salicylic acid is added so as to give the correct 2,4-D and O-acetyl-salicylic acid concentrations and a protoplast density of 0.5 million per ml. The agarose and protoplasts are mixed well, and the medium allowed to gel.
The protoplasts are prepared and plated at 0.75 million per ml as described in example 18, using 1 ml of medium per 3.5 cm diameter petri dish. O-acetyl-salicylic acid is included in the medium. The O-acetyl-salicylic acid is dissolved in DMSO and then added to the medium before plating of the protoplasts. To obtain a solution in DMSO, 1 g of O-acetyl-salicylic acid is dissolved in 10 ml DMSO, and added to 90 ml distilled water. The solution is then filter sterilized before use.
The dishes are cultured as described in example 10. After a period of 3 weeks, macroscopic colonies arising in the dishes are counted. […]

Zea mays protoplasts [2] = assay: Colony formation from cultured Zea mays protoplasts in the presence of plant growth regulators (auxins) (Example 21); type: cell-based; conditions: 0.54 million protoplasts per ml, counted after 3 weeks
Protocol: as §1
Protoplasts are resuspended in the last step of example 3 in 6/7 strength KMC solution at 5 million per ml.
Aliquots of protoplast suspension are placed in 6cm diameter petri dishes at room temperature. 2 ml of KM medium containing 1.2% w/v SeaPlaque^R agarose, and 2,4-D, Picloram, Dicamba or para-Chlorophenoxyacetic acid (pCPA) to give the correct plant growth regulator concentrations is added. The final protoplast density used is 0.54 million per ml. The agarose and protoplasts are mixed well, and the medium allowed to gel.
The dishes are cultured as described in example 10. After a period of 3 weeks, macroscopic colonies arising in the dishes are counted.

[3] = plant growth regulator concentration 0.1 mg/liter
[4] = plant growth regulator concentration 1 mg/liter
[5] = plant growth regulator concentration 10 mg/liter

| SMILES | number of formed colonies (Zea mays protoplasts [1]; 2,4-D 0.1 mg/liter) | number of formed colonies (Zea mays protoplasts [1]; 2,4-D 0.3 mg/liter) | number of formed colonies (Zea mays protoplasts [1]; 2,4-D 1.0 mg/liter) | number of colonies formed (Zea mays protoplasts [2]; [3]) | number of colonies formed (Zea mays protoplasts [2]; [4]) | number of colonies formed (Zea mays protoplasts [2]; [5]) | colony forming efficiency (Zea mays protoplasts [1]; DMSO alone, 1% v/v) | effect on the stimulatory activity of O-acetyl-salicylic acid (Zea mays protoplasts [1]; O-acetyl-salicylic acid dissolved in DMSO) |
| --- | --- | --- | --- | --- | --- | --- | --- | --- |
| O=C(O)COc1ccc(Cl)cc1Cl [2,4-D, 2,4-dichlorophenoxyacetic acid] | 1 | 2 | 45 | 140 | 0 | 0 |  |  |
| C[S+](C)[O-] [DMSO] |  |  |  |  |  |  | no significant increase or decrease | potentiates the stimulatory activity of the O-acetyl-salicylic acid |
| COc1c(Cl)ccc(Cl)c1C(=O)O [dicamba, 3,6-dichloro-2-methoxy benzoic acid] |  |  |  | 62 | 288 | 0 |  |  |
| O=C(O)COc1ccc(Cl)cc1 [pCPA, para-chlorophenoxyacetic acid] |  |  |  | 52 | 0 | 0 |  |  |
